Laboratory results reported in patent US20240142438A1, “MULTI-ORGAN MODEL” (CELLARTGEN INC., priority 2021, published 2024).
Entries after “also recorded” stand apart in the source; their conditions may differ.

What was measured:
liver organoid = test: Candidate drugs on liver organoid in multi-organ NASH organoid model (chip); format: cell-based, mouse; conditions: oleic acid 500 μM + drug 50 μM, 3 days; for low-density cholesterol (LDL) levels in the liver organoids: cholesterol analysis of disrupted organoids, vs No Treatment (NT)
Procedure: (§1) A multi-organ NASH model was constructed by applying not only conventional Matrigel, a commercially available culture scaffold, but also a decellularized tissue-derived hydrogel scaffold to culture of each organoid in a multi-organ device. Liver and pancreas organoids were obtained by extracting adult stem cells from a mouse tissue, encapsulated in a decellularized liver tissue-derived matrix (6 mg/ml) and a decellularized pancreas tissue-derived matrix (4 mg/ml), respectively, at a cell density of 70,000 cells/30 μL gel, and cultured. An intestinal organoid was obtained by extracting intestinal crypts from a mouse intestinal tissue and encapsulated in a decellularized intestinal tissue-derived matrix (2 mg/ml) at a cell density of 800 crypts/30 μL gel, and cultured. […] The cardiac organoid was cultured on a hydrogel (20 organoids/70 μL gel bed) prepared by crosslinking of a decellularized cardiac tissue-derived matrix (5 mg/ml) in the form of a 70 μL gel bed at the bottom of the device. The decellularized matrix for culturing each organoid was applied at the optimal concentration for differentiation of each organoid as determined through previous research.
Obeticholic acid (OCA), a semi-synthetic bile acid analog, is an agonist for FXR (farnesoid X receptor) to regulate bile acid metabolism, inflammation, fibrosis, and sugar/lipid metabolism. […] Elafibranor (Ela), a dual agonist for PPARα/δ, is a drug that inhibits fatty acid biosynthesis and glucose biosynthesis in the liver and has been used as a drug for cardiometabolic diseases. Liraglutide (Lira), an agonist for glucagon-like peptide-1 (GLP-1), is a drug that has been used to treat diabetes.

intestinal organoid = test: Candidate drugs on intestinal organoid in multi-organ NASH organoid model (chip); format: cell-based, mouse; conditions: oleic acid 500 μM + drug 50 μM, 3 days in liver chamber
Procedure: as §1

cardiac organoid = test: Candidate drugs on cardiac organoid in multi-organ NASH organoid model (chip); format: cell-based, mouse; conditions: oleic acid 500 μM + drug 50 μM, 3 days in liver chamber
Procedure: as §1

pancreas organoid = test: Candidate drugs on pancreas organoid in multi-organ NASH organoid model (chip); format: cell-based, mouse; conditions: oleic acid 500 μM + drug 50 μM, 3 days in liver chamber
Procedure: as §1

[1] = tested on: human iPSC-derived liver organoids; test: Candidate drugs on hiPSC-derived liver organoids in multi-organ NASH model; format: cell-based; conditions: oleic acid 500 μM + drug 50 μM, 3 days
Procedure: Human iPSC-derived liver organoids were differentiated into hepatic endoderm cells through endoderm, and then a total of 500,000 cells including the hepatic endoderm cells, vascular endothelial cells (HUVEC) and mesenchymal stem cells (hMSC) at a ratio of 10:7:2 were mixed in 10 μL of culture medium. The mixture was coated onto 10 μL of a decellularized liver tissue-derived matrix (LEM) to induce the formation of three-dimensional organoids. […] Human iPSC-derived pancreas organoids were differentiated into beta cells through endoderm, gut endoderm, pancreatic endoderm, and pancreatic progenitor cells, and then a total of 500,000 cells including the beta cells, vascular endothelial cells (HUVEC) and mesenchymal stem cells (hMSC) at a ratio of 10:7:2 were mixed in 10 μL of culture medium. The mixture was coated onto 10 μL of a decellularized pancreas tissue-derived matrix (PEM) to induce the formation of three-dimensional organoids. […] Each organoids cultured in a decellularized tissue-derived matrix was seeded into a multi-organ microfluidic device and then cultured in a normal culture medium suitable for each organ for 2 days. Then, the NASH group was treated with oleic acid (500 μM) and cultured for 3 days only in the chamber in which the liver organoid was cultured, and the groups treated with the respective drugs were treated with oleic acid (500 μM) and the respective drugs (50 μM) for 3 days in the chamber in which the liver organoid was cultured. A multi-organ device in which a normal liver organoid (Normal) not treated with the fatty acid was used as a control group.

[2] = tested on: human iPSC-derived pancreas organoids; conditions: immunofluorescence staining; oleic acid 500 μM + drug 50 μM, 3 days in liver chamber
Procedure: Human iPSC-derived liver organoids were differentiated into hepatic endoderm cells through endoderm, and then a total of 500,000 cells including the hepatic endoderm cells, vascular endothelial cells (HUVEC) and mesenchymal stem cells (hMSC) at a ratio of 10:7:2 were mixed in 10 μL of culture medium. The mixture was coated onto 10 μL of a decellularized liver tissue-derived matrix (LEM) to induce the formation of three-dimensional organoids. […] Human iPSC-derived pancreas organoids were differentiated into beta cells through endoderm, gut endoderm, pancreatic endoderm, and pancreatic progenitor cells, and then a total of 500,000 cells including the beta cells, vascular endothelial cells (HUVEC) and mesenchymal stem cells (hMSC) at a ratio of 10:7:2 were mixed in 10 μL of culture medium. The mixture was coated onto 10 μL of a decellularized pancreas tissue-derived matrix (PEM) to induce the formation of three-dimensional organoids. […] Each organoids cultured in a decellularized tissue-derived matrix was seeded into a multi-organ microfluidic device and then cultured in a normal culture medium suitable for each organ for 2 days. […]

[3] = tested on: human iPSC-derived intestinal organoids; conditions: immunofluorescence staining, oleic acid 500 μM + drug 50 μM, 3 days in liver chamber
Procedure: (§2) Human iPSC-derived intestinal organoids were differentiated into hindgut spheroids through endoderm, encapsulated in Matrigel, and matured for about 20 to 30 days. The mature intestinal organoids were extracted from Matrigel, re-encapsulated in a decellularized intestinal tissue-derived matrix
(§3) (IEM), and further cultured. […] Human iPSC-derived cardiac organoids were induced to mature into cardiomyocytes through mesenchyma and cardiac progenitor cells, and then 400,000 cells were mixed in 20 μL of a decellularized heart tissue-derived matrix (HEM) to prepare three-dimensional organoids. […] Each organoids cultured in a decellularized tissue-derived matrix was seeded into a multi-organ microfluidic device and then cultured in a normal culture medium suitable for each organ for 2 days. Then, the NASH group was treated with oleic acid (500 μM) and cultured for 3 days only in the chamber in which the liver organoid was cultured, and the groups treated with the respective drugs were treated with oleic acid (500 μM) and the respective drugs (50 μM) for 3 days in the chamber in which the liver organoid was cultured. A multi-organ device in which a normal liver organoid (Normal) not treated with the fatty acid was used as a control group.

[4] = tested on: human iPSC-derived cardiac organoids; conditions: immunofluorescence staining; oleic acid 500 μM + drug 50 μM, 3 days in liver chamber
Procedure: as §2, §3

**Q.** Which “low-density cholesterol (LDL) levels in the liver organoids” value (liver organoid) does the source give for CSc1ccc(C(=O)/C=C/c2cc(C)c(OC(C)(C)C(=O)O)c(C)c2)cc1 [Ela, Elafibranor] here?
**A.** The value was “an improvement in LDL levels compared to the No Treatment (NT) group; also recorded: a greater improvement than Lira”.

**Q.** What about the “expression level of α-SMA, a fibrosis marker (fibrosis)” value (liver organoid; immunofluorescence staining) of the same compound?
**A.** Its value is “improved the most”.

**Q.** What about the COL1A1 expression (liver organoid; quantitative PCR) of the same compound?
**A.** The COL1A1 expression was “remarkably effective in reducing the increased expression of COL1A1”.

**Q.** What about the “expression levels of HNF4A and ALB, hepatic differentiation markers” value (liver organoid; quantitative PCR) of the same compound?
**A.** The value was “no significant effect on hepatic differentiation and functional recovery”.

**Q.** And the “expression of α-SMA and COL1A1, fibrosis and drug toxicity-related markers” value (liver organoid; quantitative PCR)?
**A.** The value was “improved”.

**Q.** What about the “expression level of OCLN, a tight junction marker of the gut barrier” value (intestinal organoid; quantitative PCR) of the same compound?
**A.** The value was “not improved”.

**Q.** And the “expression levels of CHGA and MUC2, intestinal differentiation markers” value (intestinal organoid; quantitative PCR)?
**A.** The value was “not much recovered; also recorded: lower in the Ela-treated group than in No Treatment (NT) group”.

**Q.** And the “expression of CTNT and F-actin, myocardial differentiation and actin-filament markers” value (cardiac organoid; immunostaining)?
**A.** Its value is “recovered to some extent”.

**Q.** What about the “expression level of ACTC1, a cardiac differentiation marker” value (cardiac organoid; quantitative PCR) of the same compound?
**A.** Its value is “recovered”.

**Q.** How did the “gut barrier and budding of the intestinal organoid” value (intestinal organoid; optical microscopy) turn out when CCCCCCCCCCCCCCCC(=O)N[C@@H](CCC(=O)NCCCC[C@H](NC(=O)[C@H](C)NC(=O)[C@H](C)NC(=O)[C@H](CCC(N)=O)NC(=O)CNC(=O)[C@H](CCC(=O)O)NC(=O)[C@H](CC(C)C)NC(=O)[C@H](Cc1ccc(O)cc1)NC(=O)[C@H](CO)NC(=O)[C@H](CO)NC(=O)[C@@H](NC(=O)[C@H](CC(=O)O)NC(=O)[C@H](CO)NC(=O)[C@@H](NC(=O)[C@H](Cc1ccccc1)NC(=O)[C@@H](NC(=O)CNC(=O)[C@H](CCC(=O)O)NC(=O)[C@H](C)NC(=O)[C@@H](N)Cc1cnc[nH]1)[C@@H](C)O)[C@@H](C)O)C(C)C)C(=O)N[C@@H](CCC(=O)O)C(=O)N[C@@H](Cc1ccccc1)C(=O)N[C@H](C(=O)N[C@@H](C)C(=O)N[C@@H](Cc1c[nH]c2ccccc12)C(=O)N[C@@H](CC(C)C)C(=O)N[C@H](C(=O)N[C@@H](CCCNC(=N)N)C(=O)NCC(=O)N[C@@H](CCCNC(=N)N)C(=O)NCC(=O)O)C(C)C)[C@@H](C)CC)C(=O)O [Lira, Liraglutide] was run?
**A.** Its value is “the gut barrier was maintained to some extent but organoid budding hardly occurred”.

**Q.** And the “epithelial lumen of the pancreas organoids” value (pancreas organoid; optical microscopy)?
**A.** Its value is “increased in thickness, showing the pattern of early fibrosis”.

**Q.** What about the “expression level of α-SMA, a fibrosis and drug toxicity-related marker” value (pancreas organoid; quantitative PCR) of the same compound?
**A.** The value was “pancreatitis and fibrosis were reduced”.

**Q.** What about the “expression level of α-SMA, a fibrosis and drug toxicity-related marker” value (cardiac organoid; immunostaining) of the same compound?
**A.** Its value is “fibrosis was not improved”.

**Q.** What about the “shape of the cardiac organoids” value (cardiac organoid; optical microscopy) of the same compound?
**A.** The value was “some cells inside the organoids died, inducing severe cardiotoxicity”.

**Q.** What about the “expression level of α-SMA, a fibrosis and drug toxicity-related marker (fibrosis)” value (cardiac organoid; quantitative PCR) of the same compound?
**A.** Its value is “fibrosis tended to worsen”.

**Q.** With O=C1[C@H](CC[C@H](O)c2ccc(F)cc2)[C@@H](c2ccc(O)cc2)N1c1ccc(F)cc1 [Eze, Ezetimibe] as the compound, how does the “low-density cholesterol (LDL) levels in the liver organoids” value (liver organoid) read?
**A.** The value was “significantly lower than those in the No Treatment (NT) group”.

**Q.** What about the “expression levels of HNF4A and ALB, hepatic differentiation markers” value (liver organoid; quantitative PCR) of the same compound?
**A.** The value was “recovered to some extent”.

**Q.** What about the “expression of α-SMA and COL1A1, fibrosis and drug toxicity-related markers” value (liver organoid; quantitative PCR) of the same compound?
**A.** Its value is “improved”.

**Q.** And the “expression of NPC1L1” value (intestinal organoid; immunostaining)?
**A.** Its value is “the most significant decrease in expression”.

**Q.** What about the “expression level of OCLN, a tight junction marker of the gut barrier” value (intestinal organoid; quantitative PCR) of the same compound?
**A.** The value was “recovered to some extent”.

**Q.** What about the “expression levels of CHGA and MUC2, intestinal differentiation markers” value (intestinal organoid; quantitative PCR) of the same compound?
**A.** Its value is “not much recovered”.

**Q.** What about the “gene expression of FGF15 in the intestinal organoid” value (intestinal organoid; quantitative PCR) of the same compound?
**A.** Its value is “recovered to some extent”.

**Q.** What about the “expression level of KRT19, a pancreatic exocrine cell marker” value (pancreas organoid; quantitative PCR) of the same compound?
**A.** The value was “recovered to some extent”.

**Q.** What about the “expression level of PDX1, an endocrine cell marker” value (pancreas organoid; quantitative PCR) of the same compound?
**A.** The value was “not recovered”.

**Q.** What about the “expression level of ACTC1, a cardiac differentiation marker” value (cardiac organoid; quantitative PCR) of the same compound?
**A.** The value was “limitations in improving cardiac differentiation/functionality”.

**Q.** And the “expression level of FGF19” value ([1]; immunofluorescence staining)?
**A.** Its value is “recovered only in the OCA-treated group”.

**Q.** And the “expression level of α-SMA, a fibrosis and drug toxicity-related marker” value ([1]; immunofluorescence staining)?
**A.** Its value is “decreased to some extent”.

**Q.** And the “fatty acid accumulation (BODIPY staining)” value [1]?
**A.** Its value is “partially decreased”.

**Q.** What about the “structure of the liver organoids” value ([1]; optical microscopy) of the same compound?
**A.** The value was “some of the cells in the outer part died”.

**Q.** What about the “expression levels of insulin and NKX6.1, pancreatic differentiation markers” value [2] of the same compound?
**A.** The value was “less significantly recovered”.

**Q.** And the “expression level of NPC1L1” value [3]?
**A.** Its value is “decreased”.

**Q.** And the “expression level of the differentiation marker, MUC2” value ([3]; vs No Treatment group)?
**A.** Its value is “recovered to some extent”.

**Q.** What about the “expression levels of CTNT and F-actin, myocardial differentiation and actin-filament markers” value [4] of the same compound?
**A.** Its value is “recovered to some extent”.
